Measurements taken from PubChem BioAssay (NCI).
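96-well plates; 48 h exposure; 5 concentrations. Endpoints by linear interpolation between flanking doses. Not reached: highest tested concentration assigned. GI50: concentration for 50% inhibition of growth. TGI: concentration producing complete growth inhibition.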

Key:
Assay in all cases: DTP human tumour cell line panel, 48 h
[1] = system: 786-0 renal
[2] = system: A549 NSCLC
[3] = system: COLO 205 colon
[4] = system: HL-60(TB) leukemia
[5] = system: IGROV1 ovarian
[6] = system: KM12 colon
[7] = system: MCF7 breast
[8] = system: OVCAR-4 ovarian
[9] = system: SK-MEL-5 melanoma
[10] = system: SW-620 colon

| Compound | GI50 [1] [µM] | TGI [1] [µM] | GI50 [2] [µM] | TGI [2] [µM] | GI50 [3] [µM] | TGI [3] [µM] | GI50 [4] [µM] | TGI [4] [µM] | GI50 [5] [µM] | TGI [5] [µM] | GI50 [6] [µM] | TGI [6] [µM] | GI50 [7] [µM] | TGI [7] [µM] | GI50 [8] [µM] | TGI [8] [µM] | GI50 [9] [µM] | TGI [9] [µM] | GI50 [10] [µM] | TGI [10] [µM] |
| --- | --- | --- | --- | --- | --- | --- | --- | --- | --- | --- | --- | --- | --- | --- | --- | --- | --- | --- | --- | --- |
| N#C/C(=C/N1CCN(C(=O)c2ccco2)C1=S)C(=O)c1ccccc1 | 16.1 | 44.6 | 22 | 58.4 | 23.2 | > 100 | 31.5 | 91.5 | 19.4 | 70.7 | 6.49 | > 100 | 4.47 | > 100 | 29.8 | 93.2 | 8.25 | 22.2 | 5.94 | 38.3 |
| CCc1ccccc1NC(=O)c1sc2nc3c(cc2c1N)C(=O)CCC3 | 0.722 | > 74.2 | 0.656 | > 100 | 0.291 | 1.06 | 0.326 | 43.7 | 15.5 | > 100 | 0.432 | > 100 | 0.328 | > 100 | 1.54 | > 100 | 0.329 | > 100 | 0.329 | > 100 |
| COc1cc2ncn(-c3cc(OCCc4ccccc4)c(C(N)=O)s3)c2cc1OC | > 25 | > 25 | > 25 | > 25 | 24.4 | > 25 | > 20.2 | > 25 | > 25 | > 25 | 18.9 | > 25 | 10.1 | > 25 | > 25 | > 25 | 11.3 | > 25 | > 25 | > 25 |
| Cc1cn2c(/C=C3\C(=O)N(C)c4ccc(O)cc43)c(C)nc2s1 | 6.41 | > 100 | 7.9 | > 100 | 4.29 | 27.5 | 2.15 | 6.1 | 4.26 | 28.7 | 2.38 | > 100 | 2.97 | 11.9 | 20.5 | > 100 | 3.45 | 57.6 | 3.67 | > 100 |
| CC(C)S(=O)(=O)c1ccccc1Nc1nc(Nc2cccc(NC(=O)CN)c2)ncc1Cl | 0.235 | 2.57 | 0.147 | 9.03 | 0.0319 | 0.223 | 0.103 | 0.55 | 0.263 | 12.6 | 0.0331 | 2.45 | 0.0177 | 1.25 | 0.336 | 5.05 | 0.136 | 0.894 | 0.0394 | 4.09 |
| COc1cc2c(cc1O)C1Cc3ccc(OC)c(O)c3C(C2)N1C (stereo unspecified) |  | > 100 |  | > 100 |  | > 100 |  | > 100 |  | > 100 |  | > 100 |  | > 100 |  | > 100 |  | > 100 |  | > 100 |
| COc1ccc(-c2ccc(/C=N/n3c(C)n[nH]c3=S)o2)c([N+](=O)[O-])c1 | 91.1 | > 100 | > 100 | > 100 | > 100 | > 100 | > 100 | > 100 | > 100 | > 100 | > 100 | > 100 | > 100 | > 100 | > 100 | > 100 |  |  | > 100 | > 100 |
| O=c1[nH]cnc2cccc(Cl)c12 |  | > 100 |  | > 100 |  | > 100 |  | > 100 |  | > 100 |  | > 100 |  | > 100 |  | > 100 |  | > 100 |  | > 100 |
| COc1ccc(Nc2c3ccccc3nc3occ(Cl)c23)cc1 | 0.0335 | 21 | < 0.0112 | 3.95 | < 0.01 | 4.89 | < 0.01 | 0.547 | 0.0634 | > 77.2 | < 0.01 | 4.1 | < 0.01 | > 33.2 | 0.73 | > 86.6 | < 0.01 | 0.521 | < 0.01 | 18.4 |
| NC(CS/C(Cl)=C/Cl)C(=O)O (stereo unspecified) | > 100 | > 100 | 1.69 | 6.98 | 26.6 | > 69.7 | 51.7 | > 100 | > 100 | > 100 | 67.3 | > 100 | 4.03 | > 100 | 38.3 | > 100 | 3.11 | 12.9 | 39.8 | > 100 |
| COc1ccc(C(=O)COc2cccc(/C=C3\Oc4ccc5ccccc5c4C3=O)c2)cc1 | 2.22 | 6.73 | 21.1 | 52.5 | 2.45 | 6.94 | 3.19 | 18.7 |  |  | 3.39 | 14.6 | 2.45 | 16.1 | 5.08 | 17.5 | 10.9 | 23.9 | 1.87 | 3.77 |
| NC(N)=NCCCCCNc1noc(Cc2c[nH]c3cc(Br)ccc23)n1 | 23 | 86.3 | 14.2 | > 100 | 9.77 | 28.2 | 7.21 | 28.8 | 4.55 | 19.4 | 3.95 | 15.9 | 16.3 | 45 | 12.2 | 91.8 | 4.52 | 16.2 | 20 | > 100 |
| C=CCSS/C=C/CS(=O)CC=C (stereo unspecified) |  | 33.4 |  | > 100 |  | 66.5 |  | > 100 |  | > 100 |  | > 100 |  | > 100 |  | 99.3 |  | > 100 |  | 22.7 |
